Test results from ChEMBL document CHEMBL1140362, “Novel iron-specific fluorescent probes” (Bioorg Med Chem Lett, 2005).
Where “and” joins values, the source holds several entries; their conditions need not be identical. Equal values may be shown once.

Legend:
[1] = The fluorescent suspension followed by time was estimated in the absence of Diehtylenetriamine-penta acetic acid; format: functional
[2] = Permeability parameter across human erythrocyte ghost membrane was determined by using fluorescence intensity of 10 uM in presence of Diethylenetriamine-penta acetic acid (DTPA); format: ADME; conditions: erythrocytes
[3] = Permeability parameter across human erythrocyte ghost membrane was determined by using fluorescence intensity of 10 uM in absence of Diethylenetriamine-penta acetic acid (DTPA); format: ADME; conditions: erythrocytes
Homo sapiens = species on record: Homo sapiens; test: The fluorescent suspension followed by time was estimated in the presence of Diehtylenetriamine-penta acetic acid; format: functional

Row | Fluorescence [2] [a.u] | Fluorescence [3] | Compound | TIME [1] | TIME (Homo sapiens) [h]
1 | 117 | 127 a.u and 65 a.u | O=C1NCCn2cc(O)c(=O)cc21 | 0.03 h and 0.0786 h | 0.0353
2 | 252 |  | Cc1cc2[nH]c(=O)c3cc(=O)c(O)cn3c2cc1C |  | 0.00667
